Measurements: ChEMBL document CHEMBL3758115, “Bacaryolanes A-C, Rare Bacterial Caryolanes from a Mangrove Endophyte” (2015)

Columns and labels:
[1] = test system: Bacillus spizizenii; assay: Antibacterial activity against Bacillus subtilis ATCC 6633 at 50 ug/disk after 24 hrs; format: functional; details: ATCC 6633, 24 h, read-out: IZ
[2] = test system: Bacillus spizizenii; assay: Antibacterial activity against Bacillus subtilis ATCC 6633 at 0.25 ug/disk after 24 hrs; format: functional; details: ATCC 6633, 24 h, read-out: IZ

| Compound | zone of inhibition at 50 µg/disc [1] | zone of inhibition at 0.25 µg/disc [2] |
| --- | --- | --- |
| CC1(C)C[C@@H]2[C@@H]1[C@@H](O)C[C@@]1(C)CCC[C@]2(O)C1 | 10 mm | – |
| O=C(N[C@H](CO)[C@H](O)c1ccc([N+](=O)[O-])cc1)C(Cl)Cl [CHLORAMPHENICOL] | – | 28 mm |
